The source of these data is US10052392B2, “Low molecular weight polyethylene glycol drug conjugates having improved drug biological activity” (JENKEM TECHNOLOGY CO., LTD. (TIANJIN), priority 2013, dated 2018).

Like-named read-outs stand apart in the source and are kept apart here.

Series [1] relates to KU812. Description: Inhibition of cell proliferation, CTG method, 72 hours. The class given is cell-based. As to conditions: KU812 cells. On the procedure:
(§1) Cells are cultured under a complete culture medium; when cells are attached to the wall, drug of different concentrations is added in each tumor cell line for treatment, and a positive control, a blank control and a solvent control are set. Cells are incubated for 72 hours and then CTG method is used for detection.

The subject of series [2] is PC-3. The series is described as above. The following applies: PC-3 cells. The class given is cell-based. The procedure: as §1
Series [3] relates to SUP-B15. Described as above. The class given is cell-based. As to conditions: SUP-B15 cells. On the procedure:
as §1

Series [4] concerns K562. The series is described as above. The class given is cell-based. As to conditions: K562 cells. On the procedure: as §1
Series [5] relates to Caco-2 cell monolayer. The series is described as follows: Caco-2 cell monolayer transmembrane transport (unidirectional and bidirectional). The following applies: for Papp (*10^−6)A→B: Caco-2, A→B; for Papp (*10^−6)A→B / Papp (*10^−6)B→A: 90 min incubation; for Papp (*10^−6)B→A: Caco-2, B→A; for Papp (B→A)/Papp (A→B): Caco-2 efflux ratio, >2 suggests efflux transporter.
Experimental: (§2) Wherein dQ is an accumulated penetration amount of a drug receiving pond with a measure unit pmol; dt is incubation time with a measure unit min; A is a diffusion area with a measure unit cm^2; C0 is an initial administration concentration of an administrating pond with a measure unit μmol. L^−1; Papp has a measure unit cm/s.
(§3) An evaluation objective of the bidirectional transport is to preliminary observe that the transmembrane transport of the object to be tested has active transport procedure mediated by an efflux transporter.
For series [6], the system named is Caco-2 cell monolayer.
Experimental: as §2, §3
A short description of series [7]: Absolute bioavailability, intravenous vs intragastric administration. The class given is in vivo. The following applies: male SD rat, intragastric vs tail intravenous injection. The procedure: Animal: male SD rat Groups of the experiment: intravenous injection group and oral administration group, four rats being provided for each rat Administration manner: tail intravenous injection, intragastric administration Data processing: an area under a curve is calculated for intravenous injection and oral administration by using a trapezoidal method, and a bioavailability is calculated by using the following formula: […]

A short description of series [8]: Caco-2 cell monolayer transmembrane transport (unidirectional and bidirectional). The following applies: human, Caco-2. On the technique in general: Caco-2 monolayers are a common model of the intestinal barrier.
Experimental: as §2, §3

One may read the IC50 as the concentration that gives 50% inhibition. Low readings indicate greater potency, high ones weaker potency. `Cc1nc(Nc2ncc(C(=O)Nc3c(C)cccc3Cl)s2)cc(N2CCN(CCOCCOCCOCCOCCOCCN3CCN(c4cc(Nc5ncc(C(=O)Nc6c(C)cccc6Cl)s5)nc(C)n4)CC3)CC2)n1` [DSTN-42, Double End-substituted Tetraethylene Glycol-dasatinib]: in series [1], the midpoint of inhibition, the IC50, lay at 790 pM and the Maximum inhibition rate came to 96.91%. The compound also showed a Maximum inhibition rate in series [2] of 30.97%. In series [3], half-maximal inhibition (IC50) required 50000 pM and the Maximum inhibition rate turned out to be 93.36%. Also, in series [4], the IC50 was 500 pM and the Maximum inhibition rate was determined as 80.34%. Further, in series [5], the “Papp (*10^−6)A→B” value is recorded as 4.57 ± 0.87 *10^−6 cm/s, the “Papp (*10^−6)B→A” value is on record as 11.43 ± 0.72 *10^−6 cm/s and the “Papp (B→A)/Papp (A→B)” value was found to be 2.50.
For “Double End Substituted Hexaethyleneglycol-dorzolamide [DZA-02]”, in series [5], the “Papp (*10^−6)A→B” value was 12.32 ± 0.34 *10^−6 cm/s, the “Papp (*10^−6)B→A” value was 25.50 ± 1.21 *10^−6 cm/s and the “Papp (B→A)/Papp (A→B)” value was determined as 2.07.
For “Single End Substituted Pentaethyleneglycol-dorzolamide [DZA-01]”, in that order: 11.54 ± 0.36 *10^−6 cm/s, 15.50 ± 0.06 *10^−6 cm/s and 1.34.
Regarding `Cc1nc(Nc2ncc(C(=O)Nc3c(C)cccc3Cl)s2)cc(N2CCN(CCOCCOCCOCCOCCOCCOCCOCCN3CCN(c4cc(Nc5ncc(C(=O)Nc6c(C)cccc6Cl)s5)nc(C)n4)CC3)CC2)n1` [DSTN-62, Double Endhexaethylene Glycol-dasatinib], in series [1], the IC50 was found to be 490 pM and the Maximum inhibition rate was found to be 96.00%. Further, in series [2], the Maximum inhibition rate came to 29.74%. In series [3], this compound showed an IC50 of 60000 pM and a Maximum inhibition rate of 81.47%. In series [4], half-maximal inhibition (IC50) required 340 pM and the Maximum inhibition rate is reported as 81.76%. For the same compound, in series [5], the “Papp (*10^−6)A→B” value is 6.44 ± 0.11 *10^−6 cm/s, the “Papp (*10^−6)B→A” value is 15.01 ± 0.59 *10^−6 cm/s and the “Papp (B→A)/Papp (A→B)” value was 2.33.
Take `CN(C)CCc1c[nH]c2ccc(CS(=O)(=O)N(C)CCOCCOCCOCCOCCN(C)S(=O)(=O)Cc3ccc4[nH]cc(CCN(C)C)c4c3)cc12` [SMQT-02, Double End-substituted Pentaethyleneglycol-sumatriptan]: in series [6], the “Papp (*10^−6)A→B” value is listed as 9.87 ± 0.03 *10^−6 cm/s and the “Papp (*10^−6)B→A” value is given as 14.52 ± 0.12 *10^−6 cm/s. Also, the absolute bioavailability in series [7] was found to be 23%.
In general, bioavailability refers to the share of a dose that reaches the circulation, judged against a reference dose that is usually intravenous. Higher therefore signals much systemic uptake. Broadly, the Papp A→B is how fast a substance crosses the layer from the apical side. High values mean fast passage, low ones slow passage. The Papp B→A is the apparent permeability from the basolateral to the apical side of a cell layer. For orientation: efflux ratio means a quotient of directional permeabilities that is used to spot active efflux. In turn, `CN(C)CCc1c[nH]c2ccc(CS(=O)(=O)N(C)CCOCCOCCOCCOCCOCCN(C)S(=O)(=O)Cc3ccc4[nH]cc(CCN(C)C)c4c3)cc12` [SMQT-01, Double End-substituted Hexaethyleneglycol-sumatriptan] had a bioavailability in series [7] (blood, oral) of 17%. For the same compound, in series [8], the Papp A→B at 90 min is 10.6 ± 0.36 ×10⁻⁶ cm/s, the Papp B→A at 90 min came to 15.5 ± 0.06 ×10⁻⁶ cm/s and the efflux ratio at 90 min came to 1.47.
`CN(C)CCc1c[nH]c2ccc(CS(=O)(=O)N(C)CCOCCOCCN(C)S(=O)(=O)Cc3ccc4[nH]cc(CCN(C)C)c4c3)cc12` [SMQT-03, Double End-substituted Triethylene Glycol-sumatriptan]: in series [6], the “Papp (*10^−6)A→B” value is reported as 6.25 ± 0.51 *10^−6 cm/s and the “Papp (*10^−6)B→A” value was 11.06 ± 0.21 *10^−6 cm/s. Moreover, the absolute bioavailability in series [7] is 25%.
In the case of `CCN[C@H]1C[C@H](C)S(=O)(=O)c2sc(S(=O)(=O)NCCOCCOCCOCCOCCOCCOCCOCCOCCOCCOCCOCCNS(=O)(=O)c3cc4c(s3)S(=O)(=O)[C@@H](C)C[C@@H]4NCC)cc21` [DZA-03, Double End Substituted Odecylethyleneglycol-dorzolamide], in series [5], the “Papp (*10^−6)A→B” value was 8.96 ± 0.35 *10^−6 cm/s, the “Papp (*10^−6)B→A” value is 23.67 ± 0.45 *10^−6 cm/s and the “Papp (B→A)/Papp (A→B)” value is listed as 2.64.
For `CCN[C@H]1C[C@H](C)S(=O)(=O)c2sc(S(=O)(=O)NCCOCC(COCCNS(=O)(=O)c3cc4c(s3)S(=O)(=O)[C@@H](C)C[C@@H]4NCC)(COCCNS(=O)(=O)c3cc4c(s3)S(=O)(=O)[C@@H](C)C[C@@H]4NCC)COCCNS(=O)(=O)c3cc4c(s3)S(=O)(=O)[C@@H](C)C[C@@H]4C)cc21` [DZA-06, Four-Branch Ethyleneglycol-dorzolamide Conjugate], in series [8], the apical-to-basolateral permeability (Papp A→B) at 90 min was found to be 8.86 ± 0.51 ×10⁻⁶ cm/s, the Papp B→A at 90 min came to 18.1 ± 0.32 ×10⁻⁶ cm/s and the efflux ratio at 90 min amounted to 2.05.
